US9561228B2 (Celgene Avilomics Research, Inc., priority 2013, dated 2017)
Like-named read-outs stand apart in the source and are kept apart here.

What was measured:
MEK1 activated ERK1 = target: T1, MEK1 activated ERK1 (Homo sapiens, UniProt P27361); assay: Omnia continuous-read kinase assay for potency against MEK1 activated ERK1; type: biochemical
T1 construct: purchased Millipore (Billerica, Mass.) 14-439-K
Procedure, shortened: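 Apparent IC50 came from initial reaction slopes (RFU vs time) plotted against log inhibitor with a variable-slope fit. Reactions were started with ERK1 (4 nM final) added to 50 μM ATP, roughly at its appKM, and 10 μM Sox-conjugated ST17 peptide in 20 mM Tris pH 7.5, 5 mM MgCl2. Fluorescence was monitored every 71 seconds.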

[1] = test system: ERK1/2 phosphorylation of p90RSK in A375 cells; assay: Detection of total and phosphor-RSK by MSD ELISA (A375); type: cell-based; settings: Homo sapiens, A-375, read-out: ERK1/ERK2 PRSK A375 EC50
Procedure, shortened: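 Electrochemiluminescent MSD ELISA: common RSK capture antibody, with pRSK Ser380 or total RSK detection antibodies plus SulfoTag secondaries. Samples were lysates of A375 cells exposed to compound for 2 h at 37° C after overnight culture in 0.1% FBS DMEM.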

[2] = MEK1 activated ERK1, ATP at KM, read-out: ERK1 Omnia WT ATP KM IC50

T1 sequence (P27361 whole entry): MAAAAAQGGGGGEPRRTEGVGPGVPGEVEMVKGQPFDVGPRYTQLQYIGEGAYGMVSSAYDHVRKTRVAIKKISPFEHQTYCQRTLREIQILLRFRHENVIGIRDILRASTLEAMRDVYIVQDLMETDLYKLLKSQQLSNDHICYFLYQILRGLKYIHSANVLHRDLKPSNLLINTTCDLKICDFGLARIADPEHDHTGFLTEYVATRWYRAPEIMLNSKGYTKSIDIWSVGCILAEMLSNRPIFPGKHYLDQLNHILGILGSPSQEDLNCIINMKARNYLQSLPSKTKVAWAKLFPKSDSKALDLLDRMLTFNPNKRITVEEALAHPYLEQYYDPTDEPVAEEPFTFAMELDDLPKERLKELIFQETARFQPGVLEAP

| Structure (SMILES) | IC50 (MEK1 activated ERK1; ATP at KM, WT) | EC50 [1] | IC50 (MEK1 activated ERK1; [2]) |
| --- | --- | --- | --- |
| C=CC(=O)Nc1cc(C)c(F)cc1Nc1nc(Nc2cc(OC)ncc2C)ncc1C(F)(F)F [Compound I-366, N-(4-fluoro-2-((2-((2-methoxy-5-methylpyridin-4-yl)amino)-5-(trifluoromethyl)pyrimidin-4-yl)amino)-5-methylphenyl)acrylamide] | > 1000 nM | > 1000 nM |  |
| C=CC(=O)Nc1ccccc1Nc1nc(Nc2cc(OC)nc(N3CCN(C(C)=O)CC3)c2)ncc1C(F)(F)F [Compound I-92] |  | < 100 nM | < 100 nM |
| C=CC(=O)Nc1ccc(OCC(N)=O)cc1Nc1nc(NC2CCOCC2)ncc1C(F)(F)F [Compound I-395, N-(4-(2-amino-2-oxoethoxy)-2-((2-((tetrahydro-2H-pyran-4-yl)amino)-5-(trifluoromethyl)pyrimidin-4-yl)amino)phenyl)acrylamide] | > 1000 nM | > 1000 nM |  |
| C=CC(=O)Nc1cc(OCC(=O)N2CCN(C(C)=O)CC2)ccc1Nc1nc(Nc2cc(OC)ncc2OC)ncc1C(F)(F)F [Compound I-415, N-(5-(2-(4-acetylpiperazin-1-yl)-2-oxoethoxy)-2-((2-((2,5-dimethoxypyridin-4-yl)amino)-5-(trifluoromethyl)pyrimidin-4-yl)amino)phenyl)acrylamide] | < 100 nM | 501 to 999 nM |  |
| C=CC(=O)Nc1cc(C)ccc1Nc1nc(Nc2cc(P(C)(C)=O)ncc2C)ncc1C(F)(F)F [Compound I-343, N-(2-((2-((2-(dimethylphosphoryl)-5-methylpyridin-4-yl)amino)-5-(trifluoromethyl)pyrimidin-4-yl)amino)-5-methylphenyl)acrylamide] | 101 to 500 nM | 101 to 500 nM |  |
| C=CC(=O)Nc1cc(C)ccc1Nc1nc(Nc2cc(NCCOC)nc(OC)c2)ncc1C(F)(F)F [Compound I-294, N-(2-((2-((2-methoxy-6-((2-methoxyethyl)amino)pyridin-4-yl)amino)-5-(trifluoromethyl)pyrimidin-4-yl)amino)-5-methylphenyl)acrylamide] |  | < 100 nM | 101 to 500 nM |
| C#CC(=O)Nc1cc(C)ccc1Nc1nc(Nc2cc(OC)ncc2C)ncc1C(F)(F)F [Compound I-345, N-(2-((2-((2-methoxy-5-methylpyridin-4-yl)amino)-5-(trifluoromethyl)pyrimidin-4-yl)amino)-5-methylphenyl)propiolamide] | 101 to 500 nM | > 1000 nM |  |
| C=CC(=O)Nc1cc(C)ccc1Nc1nc(Nc2cc(OC)cnc2Cl)ncc1C(F)(F)F [Compound I-361, N-(2-((2-((2-chloro-5-methoxypyridin-3-yl)amino)-5-(trifluoromethyl)pyrimidin-4-yl)amino)-5-methylphenyl)acrylamide] |  | 101 to 500 nM |  |
| C=CC(=O)Nc1cc(C)ccc1Nc1nc(Nc2nc(OC)ccc2Cl)ncc1C(F)(F)F [Compound I-360, N-(2-((2-((3-chloro-6-methoxypyridin-2-yl)amino)-5-(trifluoromethyl)pyrimidin-4-yl)amino)-5-methylphenyl)acrylamide] |  | 101 to 500 nM |  |
| C=CC(=O)Nc1cc(C)ccc1Nc1nc(Nc2nc(O)ncc2C)ncc1C(F)(F)F [Compound I-364, N-(2-((2-((2-hydroxy-5-methylpyrimidin-4-yl)amino)-5-(trifluoromethyl)pyrimidin-4-yl)amino)-5-methylphenyl)acrylamide] |  | < 100 nM |  |
| C=CC(=O)Nc1cc(C)ccc1Nc1nc(Nc2cc(C(C)=O)ccc2C)ncc1C(F)(F)F [Compound I-84, N-(2-((2-((5-Acetyl-2-methylphenyl)amino)-5-(trifluoromethyl)pyrimidin-4-yl)amino)-5-methylphenyl)acrylamide] |  |  | 101 to 500 nM |
| C=CC(=O)Nc1cc(C)ccc1Nc1nc(Nc2nc(OC)ncc2Cl)ncc1C(F)(F)F [Compound I-344, N-(2-((2-((5-chloro-2-methoxypyrimidin-4-yl)amino)-5-(trifluoromethyl)pyrimidin-4-yl)amino)-5-methylphenyl)acrylamide] |  | 101 to 500 nM |  |
